Columns and labels:
MMP1 expression by SFs = assay: 'MMP assay': MMP1 expression by 'complex trigger' activated synovial fibroblasts (MMP1 ELISA); assay type: cell-based, human; conditions: Homo sapiens, Fibroblast, RASFs, 48 hrs
MAPKAPK5 = molecular target: T1, MAPKAPK5 (Homo sapiens, UniProt Q8IW41); assay: MAPKAP-K5 assay (FlashPlate, 33P-ATP); assay type: biochemical; conditions: 0.6 μM ATP, 30 minutes at room temperature
T1 construct: 1 mU MAPKAP-K5
T1 sequence (Q8IW41 1-473): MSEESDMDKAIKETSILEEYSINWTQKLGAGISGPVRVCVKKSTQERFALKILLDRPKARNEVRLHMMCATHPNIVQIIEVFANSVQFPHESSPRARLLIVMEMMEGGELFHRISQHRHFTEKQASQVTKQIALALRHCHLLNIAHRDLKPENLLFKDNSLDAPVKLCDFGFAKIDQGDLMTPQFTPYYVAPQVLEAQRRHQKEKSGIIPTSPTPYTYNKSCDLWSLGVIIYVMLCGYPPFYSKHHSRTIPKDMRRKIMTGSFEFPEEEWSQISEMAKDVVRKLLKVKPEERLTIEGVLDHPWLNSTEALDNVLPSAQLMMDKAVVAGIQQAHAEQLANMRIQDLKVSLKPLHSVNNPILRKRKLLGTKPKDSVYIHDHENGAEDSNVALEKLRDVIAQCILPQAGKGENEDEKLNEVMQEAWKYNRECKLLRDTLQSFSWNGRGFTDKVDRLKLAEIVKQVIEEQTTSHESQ
Protocol: 3 μM MAPKAP-K5 peptide substrate

Row | SMILES | EC50 (MMP1 expression by SFs) [nM] | IC50 (MAPKAPK5) [nM]
1 | COc1cc(Nc2ncc(-c3cn[nH]c3)n3ccnc23)ccc1C(=O)NCc1ccccc1 [Compound 182] | > 1000 | > 1000
2 | O=C(Nc1ccc(Nc2ncc(-c3cn[nH]c3)n3ccnc23)cn1)c1ccccc1 [Compound 183, N-{5-[5-(1H-Pyrazol-4-yl)imidazopyrazin-8-ylamino]pyridin-2-yl}benzamide] | 101 to 500 | > 1000
3 | Cc1cc(-c2cnc(Nc3ccc(N4CCOCC4)cc3)c3nccn23)ccc1C(N)=O [Compound 185] | 501 to 1000 | > 1000
4 | COc1cc(Nc2ncc(-c3csc(C(N)=O)c3)n3ccnc23)ccc1C(=O)NCc1ccc(C)nc1 [Compound 190, 4-(8-{3-Methoxy-4-[(6-methylpyridin-3-ylmethyl)carbamoyl]phenylamino}imidazo[1,2-a]pyrazin-5-yl)thiophene-2-carboxylic acid amide] | 101 to 500 | > 1000
5 | COc1cc(Nc2ncc(-c3csc(C(N)=O)c3)n3ccnc23)ccc1C(=O)NCc1ccccc1 [Compound 191] | > 1000 | > 1000
6 | NC(=O)c1cc(-c2cnc(Nc3ccc(C4CCN(CC(F)(F)F)CC4)cc3)c3nccn23)cs1 [Compound 194] | 501 to 1000 | > 1000
7 | NC(=O)c1cc(-c2cnc(Nc3ccc(NC(=O)c4ccccc4)nc3)c3nccn23)cs1 [Compound 195] | > 1000 | > 1000
8 | FC(F)(F)CN1CCC(c2ccc(Nc3ncc(-c4cn[nH]c4)n4ccnc34)cc2)CC1 [Compound 196] | > 1000 | > 1000
9 | CC(C)N1CCC(c2ccc(Nc3ncc(-c4csc(C(N)=O)c4)n4ccnc34)cc2)CC1 [Compound 199, 4-{8-[4-(1-Isopropylpiperidin-4-yl)phenyl-amino]imidazo[1,2-a]pyrazin-5-yl}thiophene-2-carboxylic acid amide] | 101 to 500 | 101 to 500
10 | O=C(Cc1ccccc1)Nc1ccc(Nc2ncc(-c3cn[nH]c3)n3ccnc23)cn1 [Compound 200, 2-Phenyl-N-{5-[5-(1H-pyrazol-4-yl)imidazo[1,2-a]pyrazin-8-ylamino]pyridin-2-yl}acetamide] | 101 to 500 | > 1000
11 | CC(C)N1CCN(c2ccc(Nc3ncc(-c4cn[nH]c4)n4ccnc34)cn2)CC1 [Compound 201, [6-(4-Isopropylpiperazin-1-yl)pyridin-3-yl]-[5-(1H-pyrazol-4-yl)-imidazo[1,2-a]pyrazin-8-yl]amine] | > 1000 | 501 to 1000
12 | CC(C)N1CCC(c2ccc(Nc3ncc(-c4cn[nH]c4)n4ccnc34)cc2)CC1 [Compound 202, [4-(1-Isopropylpiperidin-4-yl)phenyl]-[5-(1H-pyrazol-4-yl)imidazo[1,2-a]pyrazin-8-yl]amine] | > 1000 | 101 to 500
13 | CC(C)N1CCC(c2ccc(Nc3ncc(-c4ccc5c(c4)CNC5=O)n4ccnc34)cc2)CC1 [Compound 206, 5-{8-[4-(1-Isopropylpiperidin-4-yl)phenylamino]-imidazo[1,2-a]pyrazin-5-yl}-2,3-dihydroisoindol-1-one] | > 1000 | 1 to 100
14 | Nc1ccc(Nc2ncc(-c3cn[nH]c3)n3ccnc23)cn1 [Compound 207] | > 1000 | 501 to 1000
15 | c1cn2c(-c3cn[nH]c3)cnc(Nc3ccc(N4CCOCC4)cn3)c2n1 [Compound 208, N-(5-Morpholinopyridin-2-yl)-5-(1H-pyrazol-4-yl)imidazo[1,2-a]pyrazin-8-amine] | > 1000 | > 1000
16 | CC(C)N1CCN(c2ccc(Nc3ncc(-c4coc(C(N)=O)c4)n4ccnc34)cn2)CC1 [Compound 209, 4-{8-[6-(4-Isopropyl-piperazin-1-yl)-pyridin-3-ylamino]-imidazo[1,2-a]pyrazin-5-yl}-furan-2-carboxylic acid amide] | > 1000 | 101 to 500
17 | O=C1NCc2cc(-c3cnc(Nc4ccc(N5CCOCC5)cn4)c4nccn34)ccc21 [Compound 211] | > 1000 | 101 to 500
18 | N#Cc1[nH]ncc1-c1cnc(Nc2ccc(N3CCOCC3)cc2)c2nccn12 [Compound 212, 4-[8-(4-Morpholin-4-yl-phenylamino)-imidazo[1,2-a]pyrazin-5-yl]-2H-pyrazole-3-carbonitrile] | 101 to 500 | 101 to 500
19 | O=C1NCc2cc(-c3cnc(Nc4ccccc4)c4nccn34)ccc21 [Compound 213] | 101 to 500 | 101 to 500
20 | O=C1NCc2cc(-c3cnc(Nc4ccc(N5CCOCC5)nc4)c4nccn34)ccc21 [Compound 214] | > 1000 | 1 to 100
21 | O=C1NCc2cc(-c3cnc(Nc4cnc(N5CCOCC5)nc4)c4nccn34)ccc21 [Compound 215] | > 1000 | 101 to 500
22 | NC(=O)c1c(F)cc(-c2cnc(Nc3ccc(OCCN4CCOCC4)cc3)c3nccn23)cc1F [Compound 216] | > 1000 | 501 to 1000
23 | O=C1NCc2oc(-c3cnc(Nc4ccc(N5CCOCC5)cc4)c4nccn34)cc21 [Compound 217, 2-[8-(4-Morpholin-4-yl-phenylamino)-imidazo[1,2-a]pyrazin5-yl]-5,6-dihydro-furo[2,3-c]pyrrol-4-one] | > 1000 | 101 to 500
24 | CC(C)N1CCN(c2ncc(Nc3ncc(-c4ccc5c(c4)CNC5=O)n4ccnc34)cn2)CC1 [Compound 219] | 501 to 1000 | 101 to 500
25 | CC(C)N1CCN(c2ccc(Nc3ncc(-c4cc(F)c5c(c4)CNC5=O)n4ccnc34)cc2)CC1 [Compound 220, 7-Fluoro-5-{8-[4-(4-isopropyl-piperazin-1-yl)phenylamino]imidazo[1,2-a]pyrazin-5-yl}-2,3-dihydroisoindol-1-one] | > 1000 | 1 to 100
26 | CC(C)N1CCN(c2ccc(Nc3ncc(-c4cc5c(o4)CNC5=O)n4ccnc34)cc2)CC1 [Compound 222] | 501 to 1000 | 101 to 500
27 | NC(=O)CN1CCC(c2ccc(Nc3ncc(-c4cn[nH]c4)n4ccnc34)cc2)CC1 [Compound 224, 2-(4-{4-[5-(1H-Pyrazol-4-yl)imidazo[1,2-a]pyrazin-8-ylamino]phenyl}piperidin-1-yl)acetamide] | > 1000 | 501 to 1000
28 | Cc1n[nH]cc1-c1cnc(Nc2ccc(C3CCN(CC(N)=O)CC3)cc2)c2nccn12 [Compound 225, 2-(4-{4-[5-(3-Methyl-1H-pyrazol-4-yl)imidazo[1,2-a]pyrazin-8-ylamino]phenyl}piperidin-1-yl)acetamide] | > 1000 | 501 to 1000
29 | NC(=O)CN1CCC(c2ccc(Nc3ncc(-c4ccc5c(c4)CNC5=O)n4ccnc34)cc2)CC1 [Compound 226, 2-(4-{4-[5-(1-Oxo-2,3-dihydro-1H-isoindol-5-yl)-imidazo[1,2-a]pyrazin-8-ylamino]-phenyl}piperidin-1-yl)acetamide] | > 1000 | 101 to 500
30 | CC(C)N1CCN(c2ccc(Nc3ncc(-c4ccc5c(c4)C(C)(C)NC5=O)n4ccnc34)cc2)CC1 [Compound 227] | > 1000 | > 1000

From patent US8178530B2, “Imidazolopyrazine compounds useful for the treatment of degenerative and inflammatory diseases” (Janssen Pharmaceutica NV, priority 2006, dated 2012)
